Read-outs that look alike come from different tables or passages of the source.
Experiments:
Type in all cases: in vivo
[1] = system: lambsquarters (Chenopodium album); assay: Postemergence herbicidal activity; conditions: for inhibition at 125 ppm: Chenopodium album, post-emergence, 336 h, Table 2, rate 125 ppm, after 2 weeks, read-out: POSTMERGENCE HERBICIDAL ACTIVITY % CONTROL CHEAL
Outline: (§1)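 Foliar spray at 1st–2nd true leaf; 1 ppm ≈ 1 g/Ha. Carrier: acetone/water/IPA/DMSO plus crop oil concentrate and Triton X-155. Greenhouse, sub-irrigated. Visual rating vs untreated at 2 wk, 0 = no injury, 100 = complete kill.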

[2] = system: chickweed (Stellaria media); assay: Postemergence herbicidal activity; conditions: for pest or weed control at 250 ppm / inhibition at 125 ppm / pest or weed control at 125 ppm: Stellaria media, post-emergence, 336 h; for pest or weed control at 250 ppm / pest or weed control at 125 ppm: read-out: Post-emergent % Control STEME; for inhibition at 125 ppm: Table 2, read-out: POSTMERGENCE HERBICIDAL ACTIVITY % CONTROL STEME
Outline: as §1

wild oats (Avena fatua) = assay: Postemergence herbicidal activity; conditions: post-emergence, 336 h
Outline: as §1

[3] = system: crabgrass (Digitaria sanguinalis); assay: Postemergence herbicidal activity; conditions: post-emergence, 336 h
Outline: as §1

[4] = system: wild buckwheat (Polygonum convolvulus); assay: Postemergence herbicidal activity; conditions: for pest or weed control at 250 ppm / inhibition at 125 ppm / pest or weed control at 125 ppm: Fallopia convolvulus, post-emergence, 336 h; for pest or weed control at 250 ppm / pest or weed control at 125 ppm: read-out: Post-emergent % Control POLCO; for inhibition at 125 ppm: Table 2, read-out: POSTMERGENCE HERBICIDAL ACTIVITY % CONTROL POLCO
Outline: as §1

viola (Viola tricolor) = assay: Postemergence herbicidal activity; conditions: post-emergence, 336 h
Outline: as §1

[5] = system: cocklebur (Xanthium strumarium); assay: Postemergence herbicidal activity; conditions: Xanthium strumarium, post-emergence, 336 h; for pest or weed control at 250 ppm: rate 250 ppm; for pest or weed control at 250 ppm / pest or weed control at 125 ppm: read-out: Post-emergent % Control XANST; for inhibition at 125 ppm: Table 2, read-out: POSTMERGENCE HERBICIDAL ACTIVITY % CONTROL XANST
Outline: as §1

[6] = system: morningglory (Ipomoea hederacea); assay: Preemergence herbicidal activity; conditions: Ipomoea, 504 h, read-out: % Control IPOHE; for pest or weed control at 560 ppm: rate 560 ppm
Outline: (§2)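 Pre-emergence soil spray; loam:sand 70:30, pH ~8.1. Vehicle: acetone/DMSO 97:3 stock diluted in water + 0.1% Tween 155; controls sprayed with aqueous mixture. Greenhouse 23-29° C day/22-28° C night, 15 hr photoperiod. Visual % injury vs untreated at 3 wk.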

[7] = system: velvetleaf (Abutilon theophrasti); assay: Preemergence herbicidal activity; conditions: Abutilon theophrasti, 504 h; for pest or weed control at 560 ppm: rate 560 ppm; for pest or weed control at 560 ppm / pest or weed control at 280 ppm: read-out: % Control ABUTH; for inhibition at 35 g/ha: pre-emergence, Table 7, rate 35 g/Ha
Outline: as §2

[8] = system: pigweed (Amaranthus retroflexus); assay: Preemergence herbicidal activity; conditions: Amaranthus retroflexus, 504 h; for pest or weed control at 560 ppm: rate 560 ppm; for pest or weed control at 560 ppm / pest or weed control at 280 ppm: read-out: % Control AMARE; for inhibition at 35 g/ha: pre-emergence, Table 7, rate 35 g/Ha
Outline: as §2

[9] = Table 1, rate 250 ppm, visual, after 2 weeks
[10] = Table 2, rate 125 ppm, after 2 weeks, read-out: POSTMERGENCE HERBICIDAL ACTIVITY % CONTROL AVEFA
[11] = Table 2, rate 125 ppm, after 2 weeks, read-out: POSTMERGENCE HERBICIDAL ACTIVITY % CONTROL DIGSA
[12] = Table 2, rate 125 ppm, after 2 weeks, read-out: POSTMERGENCE HERBICIDAL ACTIVITY % CONTROL VIOTR
[13] = Table 6 (headed Post-emergent; text: preemergence), after 3 weeks
[14] = after 3 weeks, read-out: PREEMERGENCE HERBICIDAL ACTIVITY % CONTROL ABUTH
[15] = after 3 weeks, read-out: PREEMERGENCE HERBICIDAL ACTIVITY % CONTROL AMARE
[16] = Table 1, rate 125 ppm, visual, after 2 weeks
[17] = Table 6 (headed Post-emergent; text: preemergence), rate 280 ppm, after 3 weeks

| SMILES | inhibition at 125 ppm [1] | pest or weed control at 250 ppm [2, 9] | inhibition at 125 ppm ([2]; rate 125 ppm, after 2 weeks) | inhibition at 125 ppm (wild oats (Avena fatua); [10]) | inhibition at 125 ppm [3, 11] | pest or weed control at 250 ppm [4, 9] | inhibition at 125 ppm ([4]; rate 125 ppm, after 2 weeks) | inhibition at 125 ppm (viola (Viola tricolor); [12]) | pest or weed control at 250 ppm ([5]; Table 1, visual, after 2 weeks) | inhibition at 125 ppm ([5]; rate 125 ppm, after 2 weeks) | pest or weed control at 560 ppm [6, 13] | pest or weed control at 560 ppm [7, 13] | inhibition at 35 g/ha [7, 14] | pest or weed control at 560 ppm [8, 13] | inhibition at 35 g/ha [8, 15] | pest or weed control at 125 ppm [2, 16] | pest or weed control at 125 ppm [4, 16] | pest or weed control at 125 ppm [5, 16] | pest or weed control at 280 ppm [6, 17] | pest or weed control at 280 ppm [7, 17] | further results |
| --- | --- | --- | --- | --- | --- | --- | --- | --- | --- | --- | --- | --- | --- | --- | --- | --- | --- | --- | --- | --- | --- |
| Nc1cc(Br)nc(C(=O)O)c1Cl [Compound 14, 4-Amino-6-bromo-3-chloropyridine-2-carboxylic acid] | 95% | 90% | 65% | 40% | 65% | 50% | 100% | 75% | 85% | 100% | 100% | 100% | 100% | 90% | 100% |  |  |  |  |  | Post-emergent Evaluation - % control CHEAL ([1]; Table 5, rate 250 ppm): 70%; Post-emergent Evaluation - % control STEME ([2]; Table 5, rate 250 ppm): 70%; Post-emergent Evaluation - % control POLCO ([4]; Table 5, rate 250 ppm): 90% |
| CCOC(=O)c1nc(Cl)cc(N)c1Cl [Compound 4, ethyl 4-amino-3,6-dichloropyridine-2-carboxylate] | 100% |  | 70% | 40% | 70% |  | 100% | 70% |  | 100% |  |  |  |  |  | 100% | 100% | 100% | 100% | 100% | pest or weed control at 280 ppm [8, 17]: 100% |
| COc1c(C(=O)O)nc(Br)c(Cl)c1N [Compound 42, 4-Amino-6-bromo-5-chloro-3-methoxypyridine-2-carboxylic acid] |  | 90% |  |  |  | 90% |  |  | 85% |  | 100% | 100% | 80% | 100% | 60% |  |  |  |  |  |  |
| Nc1c(F)c(Cl)nc(C(=O)O)c1Cl [Compound 19, 4-Amino-3,6-dichloro-5-fluoropyridine-2-carboxylic acid] | 95% |  | 60% | 20% | 30% |  | 100% | 50% |  | 95% | 100% | 100% |  | 100% |  | 95% | 100% | 95% |  |  |  |
| Nc1cc(Cl)nc(C(=O)O)c1Cl [Compound 1, 4-Amino-3,6-dichloropyridine-2-carboxylic acid] |  |  |  |  |  |  |  |  |  |  |  |  |  |  |  |  |  |  |  |  | inhibition at 125 ppm ([1]; read-out: PO[…] % CONTROL CHEAL): 100%; inhibition at 125 ppm ([2]; read-out: PO[…] % CONTROL STEME, rate 125 ppm, after 2 weeks): 90%; pest or weed control at 125 ppm [2]: 100%; inhibition at 125 ppm (wild oats (Avena fatua); read-out: PO[…] % CONTROL AVEFA, Table 2, rate 125 ppm, after 2 weeks, read-out: POSTMERGENCE HERBICIDAL ACTIVITY % CONTROL AVEFA): 50%; inhibition at 125 ppm ([3]; read-out: PO[…] % CONTROL DIGSA, Table 2, rate 125 ppm, after 2 weeks, read-out: POSTMERGENCE HERBICIDAL ACTIVITY % CONTROL DIGSA): 60%; inhibition at 125 ppm ([4]; read-out: PO[…] % CONTROL POLCO, rate 125 ppm, after 2 weeks): 100%; pest or weed control at 125 ppm [4]: 100%; inhibition at 125 ppm (viola (Viola tricolor); read-out: PO[…] % CONTROL VIOTR, Table 2, rate 125 ppm, after 2 weeks, read-out: POSTMERGENCE HERBICIDAL ACTIVITY % CONTROL VIOTR): 80%; inhibition at 125 ppm ([5]; read-out: PO[…] % CONTROL XANST, rate 125 ppm, after 2 weeks): 100%; pest or weed control at 125 ppm [5]: 95%; pest or weed control at 280 ppm [6]: 100%; pest or weed control at 280 ppm [7]: 100%; inhibition at 35 g/ha ([7]; read-out: PR[…] % CONTROL ABUTH, after 3 weeks): 95%; pest or weed control at 280 ppm [8]: 100%; inhibition at 35 g/ha ([8]; read-out: PR[…] % CONTROL AMARE, after 3 weeks): 88% |
| COC(=O)c1nc(Cl)cc(N)c1Cl [Compound 3, methyl 4-amino-3,6-dichloropyridine-2-carboxylate] |  |  |  |  |  |  |  |  |  |  |  |  | 95% |  | 90% | 100% | 100% | 100% | 100% | 100% | pest or weed control at 280 ppm [8, 17]: 100% |

Source: patent US20010047099A1, “4-aminopicolinates and their use as herbicides” (priority 2000, published 2001)
